# Test results taken from a melting point compilation (Tetko et al.; mined from patent text by program, amines drawn as free bases though some values may be those of a salt).
row,SMILES,melting point
1,COc1cc2c(cc1OC)N(C(N)=O)C(=O)C2,206 to 209 °C
2,COc1ccc(Cc2nc(N3CCOCC3)c3c(C)c(C#N)sc3n2)cc1OC,67 to 70 °C
3,CCOc1c([C@@H]2C[C@H]2C=O)cc(C(C)(C)C)cc1C(C)(C)C (racemic),123 to 126 °C
4,COC(=O)c1ccc(CNC(C)=O)cc1S(N)(=O)=O,173 to 175 °C
5,CCCNC(=O)[C@H]1CN(c2ccc(N3CCOCC3)c(F)c2)C(=O)O1,165 to 167 °C
6,COc1cc2c(=O)c(C)cn3c4cc(Br)ccc4c(c1)c23,201 to 204 °C
7,FC(F)(F)c1ccc(-c2oncc2CCl)cc1,99 to 100 °C
8,[N-]=[N+]=NC1CC(n2cc(Cl)c(=O)[nH]c2=O)OC1CO (centres undefined),65 °C
9,O=[N+]([O-])c1nccn1COCCO,115 °C
10,O=C(O)c1nccn1C(c1ccccc1)c1ccccc1,191 °C
11,CCNC(=O)c1ccc(N2CCN(Cc3cc(C)c4c(c3)NC(=O)C(C)O4)CC2)c(C)c1 (centres undefined),223 to 230 °C
12,Cn1nc(-c2ccc(S(C)(=O)=O)cc2Cl)c2c1CCCC2=O,208 °C
13,CCOC(=O)NOC(=O)c1ccc(Cl)cc1,79 °C
14,CCOC(=O)C(O)(CC(C)(C)c1ccc(OC)cc1)C(F)(F)F (centres undefined),79 to 80 °C
15,COc1cc(C(=O)O)ccc1Cc1cn(C)c2ccc(N(C(N)=O)C3CCCC3)cc12,203 to 206 °C
16,CS(=O)(=O)c1ccc(-c2cnn(CC(F)(F)F)c(=O)c2NC2CCCC2)cc1,134 to 139 °C
17,COc1cc(CCC(=O)C2=C(Cl)CCC2)cc(OC)c1OC,93 °C
18,O=CNNc1ccc(NC(=S)N2CCCC2)cc1,199 to 201 °C
19,CCCc1nn(CC)c2c(=O)[nH]c(-c3cc(S(=O)(=O)Cl)ccc3OCC)nc12,170 to 172 °C
20,c1ccc2c(c1)N[C@H]1CCNCC[C@@H]21 (relative stereo),102 to 114 °C

row,SMILES,melting point
1,CN1CCN(C2(CNC=O)CCCCC2)CC1,97 to 98 °C
2,COC(=O)c1cc(-c2ccc(C)cc2)c(O)c(C(C)(C)C)c1,105 °C
3,CCOC(c1ccc(Cl)c2nc3n(c12)CCCN3c1ccc(Cl)cc1Cl)C1CC1 (centres undefined),138 to 140 °C
4,COc1ccccc1C(O)c1cc(Br)cc(Br)c1 (centres undefined),112 to 116 °C
5,Cc1cc(C#N)c2ccccn12,98 to 100 °C
6,CC(O)N1CCC(=C2c3ccccc3C=Cc3ccc(S(=O)(=O)C(F)(F)F)cc32)CC1 (centres undefined),141 to 144 °C
7,COc1cc(OC)nc(NC(=O)NS(=O)(=O)Oc2ccccc2C(=O)OCCCl)n1,148 to 150 °C
8,Oc1ccc2nc(-c3ccc(Cl)cc3)oc2c1,273 to 274 °C
9,O=C(Nc1cccc(Nc2nc(-c3cccnc3)cs2)c1)c1ccc(/C=C/ONO)s1,206 °C
10,CC(c1ccc(F)c(Br)c1)N(O)C(N)=O (centres undefined),125 °C
11,OCCSP(=S)(C1CCCCC1)C1CCCCC1,82 to 84 °C
12,c1nc(NCCN2CCOCC2)c2sc3nc(N4CCCC4)c4c(c3c2n1)CCOC4,189 to 191 °C
13,CC(C)(C)OC(=O)C(=O)C=Cc1cccnc1,51 to 52 °C
14,O=C(Nc1ccc(F)cc1)c1cn2nc(N3CCN(C(=O)c4ccccc4C(F)(F)F)CC3)ccc2n1,115 to 117 °C
15,CNc1nc(-c2cccc(NC(=O)c3ccncc3)c2)c2cc(OC)c(OC)cc2n1,228 to 230 °C
16,CC(C)(CO)CCCCCCC(O)CCCCCCC(C)(C)CO,75 to 77 °C
17,O=C(Oc1ccc(Oc2ccc(C(F)(F)F)cn2)cc1)N1CCN(CCc2cccnc2)CC1,173 to 179 °C
18,CNc1ccc(F)c(C#N)c1,64 to 65 °C
19,Oc1ccc(CC2CC2(Cl)Cl)cc1 (centres undefined),57 to 62 °C
20,CSc1ccc(C=CC(N)=NO)s1,70 to 71 °C

row,SMILES,melting point
1,Cc1c(C)c(N2CCN(c3ccc(F)cc3)CC2)c(C)c2c1OC(C)(C)C2=O,176 to 179 °C
2,O=C1OC(O)(C(F)(F)F)c2cccc(O)c21 (centres undefined),128 to 129 °C
3,CCCCc1ccc(C(=O)O)cc1C12CC3CC(CC(C3)C1)C2,209 to 210 °C
4,COC(OC)c1cc(O)cc(Cl)c1,153 °C
5,CCCOC(=O)N(C)S(=O)(=O)c1cc([N+](=O)[O-])c(N(CCC)CCC)c([N+](=O)[O-])c1,110 to 113 °C
6,O=C(Nc1nccs1)/C(=C/C1CCCC1)c1ccc(Cl)c(Cl)c1,57 to 59 °C
7,Cc1[nH]cnc1CSCCNc1nnc(Cc2cccnc2)c(=O)[nH]1,232 to 233 °C
8,CNC(=O)[C@H](C)C[C@H](O)[C@H](CC1CCCCC1)NC(=O)[C@H](Cc1cscn1)NC(=O)[C@@H](CC(=O)N1CCOCC1)Cc1ccccc1,130 to 132 °C
9,COc1c(C)c(N2CCN(c3ccc(OC(F)F)cc3)CC2)c(C)c2c1OC(C)(C)C2,151 to 152 °C
10,CCOC(=O)c1nnn(O)n1,75 to 78 °C
11,COC(=O)c1cc2c(Nc3ccc4[nH]ccc4c3C)c(C#N)cnc2s1,255 °C
12,CCOC(=O)c1nnc(C(=O)OCC)c2c1[nH]c1ccccc12,151 to 152 °C
13,CC1=CC(C)(C)C=C(O)C1,46 °C
14,COCCOCc1c(CN(C)CC(O)c2ncccn2)sc2c(=O)c(C(=O)NCc3ccc(Cl)cc3)cn(C)c12 (centres undefined),146 to 148 °C
15,COC(=O)Nc1ccc(N)c(NCCO)c1,240 to 242 °C
16,Nc1ccc(S(=O)(=O)Nc2ccc(Cl)cc2Cl)cc1C(=O)O,224 °C
17,Cc1c(-c2ccc(Cl)s2)ccc(N)c1C#N,108 to 110 °C
18,CCC(C)c1c(OC)ccc2c1oc1ccc(C#N)cc12 (centres undefined),80 to 82 °C
19,COC(=O)[C@H]1C[C@H]2C(=O)NCCN2C1,70 to 74 °C
20,NC(=O)c1cc(-c2ccnc(Nc3cccc(OC(F)(F)C(F)F)c3)n2)ccn1,224 to 225 °C

# More lines, now with the values ahead:
row,melting point,SMILES
1,137 to 139 °C,O=c1c(Cc2cccnc2)cn2c3cc(Cl)ccc3c3cc(OCCCO)cc1c32
2,142 to 144 °C,CCCn1c(=O)c(-c2ccccc2)c2n(c1=O)CC=CS2
3,195 to 205 °C,CC(C)(C(=O)O)c1cn2nc(CCCN3CCC(OC(c4ccccc4)c4ccccc4)CC3)ccc2n1
4,90 to 92 °C,C=CCNc1nc(NCC=C)nc(N2CCN(C(=O)NCC(c3ccccc3)c3ccccc3)CC2)n1
5,176 to 178 °C,COc1ccc(-c2ccc3c(c2)c2ccc(Cl)nc2n3S(=O)(=O)c2ccccc2)cc1
6,218 to 227 °C,O=C(Nc1nc(-c2ccco2)c(C(=O)c2ccccn2)s1)c1ccncc1
7,224 °C,CCCCc1cn(Cc2ccc(C(=O)O)cc2)c2ccccc2c1=O
8,193 to 194 °C,COc1ccc(-c2nn(Cc3ccncc3)c(=O)cc2-c2ccncc2)cc1
9,162 to 164 °C,COC1OCC[C@@H]1NC(=O)CN(CC(C)C)C(=O)CNC(=O)COc1ccc2c(c1)Nc1ccccc1S2 (some centres undefined)
10,86 to 88 °C,CCCc1c(COc2ccc(Cc3nnn(Cc4ccc(-c5nnn[nH]5)cc4)n3)cc2)ccc(C(C)=O)c1O
11,205 to 207 °C,NC(=O)c1c(N)sc(-c2ccc(F)cc2)c1-c1ccccc1
12,92.5 to 93.8 °C,O=C(OCc1ccccc1)c1ccc(OCc2cccc(COc3ccc(C(=O)OCc4ccccc4)cc3)c2)cc1
13,194 to 196 °C,O=C(Nc1cccc2c(-c3ccccc3)c([N+](=O)[O-])oc12)C(F)(F)F
14,208 to 209 °C,COc1ccc(-c2c(Cl)c(CCl)nc3sc4c(c23)CCN(C(=O)c2ccccc2)C4)cc1OC
15,126 to 128 °C,CN1CCC(NC(=O)c2cccc3oc(-c4ccccc4)nc23)CC1
16,96 to 98 °C,COC(=O)C(C)(C)OCc1cc2cc(Cl)ccc2n1S(=O)(=O)c1ccc(OC)cc1
17,150 to 153 °C,N#Cc1ccccc1-c1ccc(CN2C(=O)c3ccccc3C2=O)cc1
18,153 to 155 °C,O=C(O)COc1ccc(SCc2ccc(OCc3ccc(CF)cc3)cc2)c2c1CCC2
19,200 to 202 °C,CCCC(=O)Oc1ccc2[nH]c(=O)c(-c3nnn(Cc4cccc(OCc5ccc6ccccc6n5)c4)n3)cc2c1
20,88 to 90 °C,C=CCN1C(=O)C(C)N(c2ccc(OCc3ccccc3)cc2)C1=S (centres undefined)

row,melting point,SMILES
1,74 °C,OCCc1ccc(-c2ccccc2)s1
2,125 °C,COC(=O)C(c1ccccc1)N1CCN(c2ccc(NC(=O)c3ccccc3-c3ccccc3)cc2)CC1 (centres undefined)
3,210 to 215 °C,Cc1cc2c(cc1C)N(C)C(=O)C(CC(=O)O)C2c1ccccc1Cl (centres undefined)
4,206 to 208 °C,CC(C(=O)N1c2ccccc2C(=O)N(C)c2cccnc21)N1CCN(C)CC1 (centres undefined)
5,173 to 174 °C,CC(=O)Oc1c(Oc2ccccc2)c(Oc2ccccc2)c(OC(C)=O)c2ccccc12
6,159 to 160 °C,c1ccc(N2CCN(CCC3CCC(Nc4cccnc4)CC3)CC2)cc1 (centres undefined)
7,108 to 109 °C,CCN(CC)Cc1ccc2nc(-c3ccccc3)cc(OCc3ccccc3)c2c1
8,195 °C,CCN(CC)c1ccc(-c2cc(-c3ccc(C(=O)O)cc3)ccc2O)cc1C(F)(F)F
9,71 to 72 °C,O=C/C=C/C=C(c1ccccc1)c1ccccc1
10,248 to 260 °C,NC(=O)N1C(=O)C(C(=O)c2ccco2)c2nc(Cl)ccc21 (centres undefined)
11,277 to 280 °C,COc1ccc2cc3c(c(-c4ccc(OC(F)(F)F)cc4)c2c1)CNC3=O
12,177 to 178 °C,CC(Oc1ccc2c(c1)c(-c1cc3cccnc3[nH]1)cn2C)C(=O)O (centres undefined)
13,267 to 268 °C,O=C(CN1c2nc(-c3ccncn3)cc(=O)n2CCC12CCN(C(=O)c1cccc(F)c1)C2)c1ccccc1 (centres undefined)
14,173 to 174 °C,O=C1C(=O)N2c3c(cc(Cl)cc31)CCC2c1ccccc1 (centres undefined)
15,198 to 199 °C,COc1ccc2c(c1)c(CC(=O)N(O)C(C)C)c(C)n2C(=O)c1ccc(Cl)cc1
16,106 to 108 °C,O=C1C=CC(O)(c2cc3ccccc3o2)C=C1
17,> 50 °C,Cc1cc(NS(=O)(=O)c2ccccc2)cc(C)c1S(=O)C[N+](=O)[O-] (centres undefined)
18,93 to 94 °C,COc1ccc(-c2nc(CNC(=O)OCc3ccccc3)sc2-c2cccnc2)cc1
19,156 to 157 °C,CCCN(CCC)C(=O)Cn1c(-c2ccc(Cl)cc2)nc2cccnc21
